# Reference: patent US10473640B2, “Drug selection for gastric cancer therapy using antibody-based arrays” (Société des Produits Nestlé S.A., priority 2006, dated 2019)
# Legend:
# [1] = early Phase I; cited from earlier work
# human xenograft models = settings: dosed orally; cited from earlier work
# [2] = in vivo; cited from earlier work
# CYP450 = settings: cited from earlier work
# c-Met [3] = target: T1, c-Met (Homo sapiens, UniProt P08581); test: c-Met activation in HGF-treated A431 cells (proximity assay); assay type: cell-based; settings: A431 epidermoid carcinoma cells, FIG. 3
# Procedure: (§1) The slide was incubated for two hours at room temperature. • 4) After six washes with TBS-Tween, 80 μl of detection antibodies for the proximity assay diluted in TBS-Tween/2% BSA/1% FBS was added to the slides. The incubation was for 2 hours at room temperature. • a) As a non-limiting example, the detection antibodies can comprise the following: (i) an anti-c-Met monoclonal antibody that is directly conjugated to glucose oxidase (GO); and (ii) a monoclonal antibody recognizing phosphorylated c-Met that is directly conjugated to horseradish peroxidase (HRP). • b) Alternatively, the detection step can utilize a biotin-conjugate of the monoclonal antibody recognizing phosphorylated c-Met. In these instances, after six washes, an additional sequential step of incubation with streptavidin-HRP for 1 hour is included. • c) Alternatively, the detection step can utilize an oligonucleotide-mediated glucose oxidase (GO) conjugate of the anti-c-Met antibody. […]
# (§2) The multiplexed protein microarray platform described herein utilizes the formation of a unique immuno-complex requiring the co-localization of two detector enzyme-conjugated-antibodies once target proteins are captured on the microarray surface. […] The detection and quantification of as few as ˜2-3×10^4 phosphorylation events is routinely achieved by this method, bringing its detection to a “single” cell level. […]
# c-Met [4] = target: T1, c-Met; test: c-Met activation in HGF-treated HCC827 cells (proximity assay); assay type: cell-based; settings: HCC827 lung cancer cells, FIG. 4
# Text: (§3) The multiplexed protein microarray platform described herein utilizes the formation of a unique immuno-complex requiring the co-localization of two detector enzyme-conjugated-antibodies once target proteins are captured on the microarray surface. The channeling events between two detector enzymes (glucose oxidase (GO) and horseradish peroxidase (HRP)) in proximity enables the profiling of a receptor tyrosine kinase (RTK) such as c-Met with extreme sensitivity. […] In particular, the multiplexed proximity assay is based on (1) a multiplexed protein microarray platform combined with (2) a triple-antibody-enzyme channeling signal amplification process. The unique and novel design is provided by the triple-antibody enzyme approach that confers ultra-high sensitivity while preserving specificity: • (1) The selected target is captured by target-specific antibodies printed in serial dilutions on a microarray surface. […] The detection and quantification of as few as ˜2-3×10^4 phosphorylation events is routinely achieved by this method, bringing its detection to a “single” cell level. In certain instances, this collaborative immunoassay configuration can be further applied to investigate protein interactions and activations.
# HER2 [5] = test: HER2 activation in HGF-treated A431 cells (proximity assay); assay type: cell-based; settings: A431 epidermoid carcinoma cells, FIG. 3
# Procedure: as §1, §2
# HER2 [6] = test: HER2 activation in HGF-treated HCC827 cells (proximity assay); assay type: cell-based; settings: HCC827 lung cancer cells, FIG. 4
# Text: as §3
# c-Met [7] = target: T1, c-Met; settings: cited from earlier work
# T1 sequence (P08581 25-1390): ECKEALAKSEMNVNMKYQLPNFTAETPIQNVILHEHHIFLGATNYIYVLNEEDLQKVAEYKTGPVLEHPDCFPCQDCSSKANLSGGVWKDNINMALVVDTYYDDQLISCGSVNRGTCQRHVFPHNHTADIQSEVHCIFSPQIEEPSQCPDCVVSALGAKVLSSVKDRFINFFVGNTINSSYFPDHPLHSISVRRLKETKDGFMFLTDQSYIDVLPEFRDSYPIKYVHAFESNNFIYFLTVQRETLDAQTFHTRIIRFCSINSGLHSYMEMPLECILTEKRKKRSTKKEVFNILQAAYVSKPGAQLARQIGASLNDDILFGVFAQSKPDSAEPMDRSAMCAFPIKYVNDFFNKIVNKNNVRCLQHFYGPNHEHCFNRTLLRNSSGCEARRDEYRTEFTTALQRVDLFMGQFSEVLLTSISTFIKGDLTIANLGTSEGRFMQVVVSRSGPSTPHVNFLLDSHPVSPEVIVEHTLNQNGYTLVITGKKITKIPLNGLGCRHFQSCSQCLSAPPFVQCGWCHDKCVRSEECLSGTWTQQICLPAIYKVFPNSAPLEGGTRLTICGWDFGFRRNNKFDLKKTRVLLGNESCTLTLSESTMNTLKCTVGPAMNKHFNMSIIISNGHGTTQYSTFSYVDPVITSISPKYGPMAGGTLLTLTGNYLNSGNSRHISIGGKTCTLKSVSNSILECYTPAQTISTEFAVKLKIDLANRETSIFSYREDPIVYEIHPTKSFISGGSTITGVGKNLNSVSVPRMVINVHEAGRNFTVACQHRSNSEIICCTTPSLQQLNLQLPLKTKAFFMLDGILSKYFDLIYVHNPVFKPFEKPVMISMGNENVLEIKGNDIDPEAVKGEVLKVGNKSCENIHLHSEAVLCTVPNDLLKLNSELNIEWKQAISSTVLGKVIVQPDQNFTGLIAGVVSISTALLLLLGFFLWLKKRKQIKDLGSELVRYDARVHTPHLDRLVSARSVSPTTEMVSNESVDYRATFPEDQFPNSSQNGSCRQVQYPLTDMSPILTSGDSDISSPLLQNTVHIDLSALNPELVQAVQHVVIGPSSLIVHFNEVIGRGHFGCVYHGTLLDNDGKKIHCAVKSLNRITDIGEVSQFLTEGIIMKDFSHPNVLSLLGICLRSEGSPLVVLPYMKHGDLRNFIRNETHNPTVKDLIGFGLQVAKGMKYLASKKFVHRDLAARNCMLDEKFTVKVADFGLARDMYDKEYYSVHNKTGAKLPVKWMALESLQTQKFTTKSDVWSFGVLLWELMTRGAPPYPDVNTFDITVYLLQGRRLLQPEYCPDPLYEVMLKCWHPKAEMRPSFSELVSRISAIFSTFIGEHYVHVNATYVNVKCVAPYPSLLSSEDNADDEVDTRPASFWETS
molecule,measurement,setting,value
CN(C[C@@H]1COCCO1)S(=O)(=O)Nc1ccc2ccc3ncc(-c4cnn(C)c4)cc3c(=O)c2c1 [MK-2461],tolerability,[1],well tolerated
Cn1cc(-c2ccc3nnc(Sc4ccc5ncccc5c4)n3n2)cn1 [SGX523],antitumor activity,human xenograft models,potent antitumor activity
same,toxicity,human xenograft models,no overt toxicity
COc1cc2c(Oc3ccc(NC(=O)C4(C(=O)Nc5ccc(F)cc5)CC4)cc3F)ccnc2cc1OCCCN1CCOCC1 [XL880],oral bioavailability,[2],good
same,CYP450 substrate / inhibitor / inducer,CYP450,"substrate, but not an inhibitor or inducer"
"HGF: c-Met ligand, hepatocyte growth factor, a multidomain glycoprotein",c-Met phosphorylation,c-Met [3],stimulated
same,increase of c-Met phosphorylation,c-Met [4],about 4 fold
same,HER2 phosphorylation,HER2 [5],slightly decreased
same,HER2 phosphorylation,HER2 [6],not affected
"MetMAb: humanized, monovalent, antagonistic anti-c-Met antibody derived from the agonistic monoclonal antibody 5D5",binding to c-Met,c-Met [7],high affinity
